Data on two compounds can be found in BindingDB's records for doi:10.1021/jm030438k (Harvard Medical School, 2004).

The target of one assay is T1, Dihydrofolate reductase (Homo sapiens, UniProt P00374).
T1 sequence (P00374 whole entry): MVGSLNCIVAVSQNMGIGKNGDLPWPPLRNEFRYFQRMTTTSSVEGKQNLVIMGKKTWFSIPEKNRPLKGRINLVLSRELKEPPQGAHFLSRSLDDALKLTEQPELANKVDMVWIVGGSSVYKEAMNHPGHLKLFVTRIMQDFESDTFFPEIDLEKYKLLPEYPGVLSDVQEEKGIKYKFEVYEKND
In words: Inhibitory concentration against dihydrofolate reductase of rat liver.

For assay [1], the target named is Dihydrofolate reductase (Homo sapiens) (UniProt P00374). In words: Inhibitory concentration against dihydrofolate reductace enzyme of humans.

Structures are written as SMILES.

Take `COc1cc(Cc2cnc3nc(N)nc(N)c3c2C)cc(OC)c1` [6-(3,5-Dimethoxy-benzyl)-5-methyl-pyrido[2,3-d]pyrimidine-2,4-diamine]: the IC50 against Dihydrofolate reductase was 1.5 nM.
For the compound `Cc1ccc(Cl)cc1Cc1cnc2nc(N)nc(N)c2c1C` [6-(5-Chloro-2-methyl-benzyl)-5-methyl-pyrido[2,3-d]pyrimidine-2,4-diamine], in assay [1], half-maximal inhibition (IC50) required 2.8 nM.

As a reminder, the IC50 is the concentration that gives 50% inhibition.
